From patent publication US9238631B2, “Radiolabeled amino acids for diagnostic imaging” (PIRAMAL IMAGING SA, priority 2011, dated 2016)

What was measured:
NCI-H460 tumor [1] = test: PET imaging in NCI-H460 tumor bearing nude-rats; format: in vivo; settings: PET ROI analysis, 1 h p.i.
Protocol: c) Beside PET-imaging studies in mice, also the imaging properties of [^18F]-12 in rats were examined. NCI-H460 tumor cells were inoculated into the right flank of nude-rats (RH-Foxn1 nu/nu) 8 to 10 days before the PET study. PET images were acquired at 60 min after injection of approximately 10 MBq for 10 minutes. The H460 tumor was nicely visible (0.9% ID/g as determined by ROI analysis). Beside some minor uptake into the liver and kidneys due to the excretion of the compound, no uptake into other non-target tissues was observed.
To test the imaging properties, compounds from the present invention were evaluated in PET imaging studies using tumor bearing rats. NCI-H460 tumor cells were inoculated into the right flank of nude-rats (RH-Foxn1 nu/nu) 8 to 10 days before the PET study. PET images were acquired at 60 min after injection of approximately 10 MBq for 10 minutes. After the imaging study, region-of-interest (ROI) analysis was performed and activity in tumor, liver and kidney was determined. […] High tumor uptake values of >1% […] in this rat model were obtained with various compounds from the present invention. A favorable clearance profile of all compounds enables excellent tumor detection in PET imaging studies in tumor bearing rats.

NCI-H460 tumor [2] = test: In vivo biodistribution in NCI-H460 tumor bearing mice; settings: for T/Blood / T/Muscle: 1 h post injection
Protocol: (§1) To test the pharmacokinetic properties of compounds from the present invention, all F18-labeled compounds were examined by biodistribution studies in NCI-H460 tumor bearing mice. Female NMRI (nu/nu) mice were inoculated with 5×10^6 NCI-H460 tumor cells 8 to 10 days before the biodistribution studies. 185 kBq of activity of the fluorinated compound was injected and at least n=3 mice were used for every time point. After injection of the F18-labeled compound, mice were sacrificed at defined time-points. All organs were removed and radioactivity was determined using a γ-counter.
To compare the tumor uptake and retention of radioactivity of different ^18F-labeled derivatives from the present invention, biodistribution studies were performed in NCI-H460 tumor bearing NMRI (nu/nu) mice as described above.
To compare the kidney clearance of several ^18F-labeled derivatives from the present invention, biodistribution studies were performed in NCI-H460 tumor bearing female NMRI (nu/nu) mice as described above. […] After 2 h p.i., less than 1% ID/g can be found in the kidneys.
For comparison of pancreas uptake and clearance of several ^18F-labeled derivatives from the present invention, biodistribution studies were performed in NCI-H460 tumor bearing NMRI (nu/nu) mice as described above. […] After 2 h p.i., less than 2% ID/g can be found in the pancreas.
as §1, with “and” for “for every time point. After injection of the F18-labeled compound, mice were”, “time-points raning from 15 min pi up to 2 h p.i.” for “time-points.”, “γ-counter. […] High tumor uptake values of >3% ID/g were obtained with various compounds from the present invention.” for “γ-counter.”

Row | Kidney (% ID/g at 1 h p.i.) (NCI-H460 tumor [1]) | Liver (% ID/g at 1 h p.i.) (NCI-H460 tumor [1]) | Tumor (Max % ID/g at 1 h p.i.) (NCI-H460 tumor [1]) | Tumor (Mean % ID/g at 1 h p.i.) (NCI-H460 tumor [1]) | Kidney (% ID/g at 1 h p.i.) (NCI-H460 tumor [2]) | Liver (% ID/g at 1 h p.i.) (NCI-H460 tumor [2]) | Pancreas (% ID/g at 1 h p.i.) (NCI-H460 tumor [2]) | Tumor (% ID/g at 1 h p.i.) (NCI-H460 tumor [2]) | Urine (% ID at 1 h p.i.) (NCI-H460 tumor [2]) | T/Blood (NCI-H460 tumor [2]) | T/Muscle (NCI-H460 tumor [2]) | tumor uptake and retention (summary statement) (NCI-H460 tumor [2]; mouse, in vivo) | SMILES
1 |  |  |  |  | 5.2 ± 1.1 % ID/g | 0.7 ± 0.2 % ID/g | 0.2 ± 0.03 % ID/g | 1.0 ± 0.1 % ID/g | 77 ± 6.7 % ID | 9.9 | 25 |  | N[C@@H](CC(Cc1ccc(OCC[18F])nc1)C(=O)O)C(=O)O (stereo partly drawn) [[^18F]-56, 4-({6-[2-(^18F)fluoroethoxy]pyridin-3-yl}methyl)-L-glutamic acid]
2 | 4.6 % ID/g | 1.7 % ID/g | 0.63 % ID/g | 0.3 % ID/g |  |  |  |  |  |  |  |  | N[C@@H](CC(Cc1ccc(OC[C@H](O)[C@@H](O)C[18F])cc1)C(=O)O)C(=O)O (stereo partly drawn) [[^18F]-58, 4-(4-{[(2S,3R)-4-(^18F)fluoro-2,3-dihydroxybutyl]oxy}benzyl)-L-glutamic acid]
3 | 2.9 % ID/g | 1.7 % ID/g | 1.3 % ID/g | 0.7 % ID/g |  |  |  |  |  |  |  |  | N[C@@H](CC(Cc1ccc(C[18F])cc1)C(=O)O)C(=O)O (stereo partly drawn) [[^18F]-66, 4-{4-[(^18F)fluoromethyl]benzyl}-L-glutamic acid]

The remaining lines, values behind:

Row | SMILES | Kidney (% ID/g at 1 h p.i.) (NCI-H460 tumor [1]) | Liver (% ID/g at 1 h p.i.) (NCI-H460 tumor [1]) | Tumor (Max % ID/g at 1 h p.i.) (NCI-H460 tumor [1]) | Tumor (Mean % ID/g at 1 h p.i.) (NCI-H460 tumor [1]) | Kidney (% ID/g at 1 h p.i.) (NCI-H460 tumor [2]) | Liver (% ID/g at 1 h p.i.) (NCI-H460 tumor [2]) | Pancreas (% ID/g at 1 h p.i.) (NCI-H460 tumor [2]) | Tumor (% ID/g at 1 h p.i.) (NCI-H460 tumor [2]) | Urine (% ID at 1 h p.i.) (NCI-H460 tumor [2]) | T/Blood (NCI-H460 tumor [2]) | T/Muscle (NCI-H460 tumor [2]) | tumor uptake and retention (summary statement) (NCI-H460 tumor [2]; mouse, in vivo)
4 | N[C@@H](CC(Cc1ccc(OCC[18F])c[n+]1[O-])C(=O)O)C(=O)O (stereo partly drawn) [[^18F]-35, 4-{[5-(2-[^18F]fluoroethoxy)-1-oxidopyridin-2-yl]methyl}-L-glutamic acid] | 3.1 % ID/g | 0.2 % ID/g | 0.5 % ID/g | 0.2 % ID/g |  |  |  |  |  |  |  | 
5 | N[C@@H](CC(Cc1ccc(OCC[18F])c(O)c1)C(=O)O)C(=O)O (stereo partly drawn) [[^18F]-44, 4-[4-(2-[^18F]fluoroethoxy)-3-hydroxybenzyl]-L-glutamic acid] |  |  |  |  | 2.5 ± 0.7 % ID/g | 0.95 ± 0.1 % ID/g | 1.2 ± 0.1 % ID/g | 3.3 ± 1.2 % ID/g | 80.6 ± 10.1 % ID | 28.2 | 71.1 | 
6 | N[C@@H](C[C@H](Cc1ccc(OC[18F])cc1)C(=O)O)C(=O)O [[^18F]-48, (4S)-4-{4-[(^18F)fluoromethoxy]benzyl}-L-glutamic acid] | 0.9 % ID/g | 0.2 % ID/g | 1.6 % ID/g | 0.8 % ID/g | 1.8 ± 0.4 % ID/g | 0.2 ± 0.08 % ID/g | 0.8 ± 0.1 % ID/g | 2.8 ± 1.4 % ID/g | 79 ± 7.8 % ID | 23.3 | 30.4 | 
7 | N[C@@H](C[C@@H](Cc1ccc(OC[18F])cc1)C(=O)O)C(=O)O [[^18F]-50, (4R)-4-{4-[(^18F)fluoromethoxy]benzyl}-L-glutamic acid] | 1.0 % ID/g | 0.2 % ID/g | 2.4 % ID/g | 1.1 % ID/g |  |  |  |  |  |  |  | 
8 | N[C@@H](CCC(Cc1ccc(NCC[18F])cc1)C(=O)O)C(=O)O (stereo partly drawn) [[^18F]-52, (2S)-2-amino-5-(4-{[2-(^18F)fluoroethyl]amino}benzyl)hexanedioic acid] |  |  |  |  | 3.5 ± 1.1 % ID/g | 2.6 ± 0.4 % ID/g | 7.5 ± 1.1 % ID/g | 8.2 ± 2.1 % ID/g | 66.8 ± 10.3 % ID | 32.5 | 95.4 | high tumor uptake and retention
9 | N[C@@H](CC(Cc1ccc(OC(CO)C[18F])cc1)C(=O)O)C(=O)O (stereo partly drawn) [[^18F]-60, 4-(4-{[1-(^18F)fluoro-3-hydroxypropan-2-yl]oxy}benzyl)-L-glutamic acid] | 2.2 % ID/g | 0.9 % ID/g | 2.2 % ID/g | 1.0 % ID/g |  |  |  |  |  |  |  | 
